Reference: patent US6436627B1, “Gene encoding an invertebrate α1 calcium channel subunit” (The Research Foundation of State University of New York, priority 1995, dated 2002)

Tests used:
Assay type in all cases: cell-based
[1] = molecular target: T1, Drosophila Dmca1D calcium channel (L23RDD2 α1 + α2−δ + β) (Drosophila melanogaster, UniProt Q24270, A1391P/C1440T/D1375E/D1388K/D1403I/D1421E/D1422S/D1433P/DEL1408-1416/DEL1426-1431/E1379S/E1381Q/E1419P/E1434Y/E1435P/E1441G/G1404N/H1387E/H1396E/I1402K/INS1389RKKLARTA/INS1394QEVVGKPALEEAKEEKIELKSITAD/L1420N/M1439T/P1386E/P1400T/Q1392E/Q1417L/R1437P/S1378T/S1395G/T1399P/V1380A/V1436N); experiment: Calcium channel currents in Xenopus oocytes expressing Drosophila L23RDD2 α1 with α2-δ and β subunits
T1 construct: rabbit cardiac α1C subunit amino acids 790-874 (85 aa insert replacing the fly II-III loop segment); expressed in transfected cells; host or cells: Xenopus oocytes injected with cRNA
T1 sequence (P13806 27-960, stated change not applied): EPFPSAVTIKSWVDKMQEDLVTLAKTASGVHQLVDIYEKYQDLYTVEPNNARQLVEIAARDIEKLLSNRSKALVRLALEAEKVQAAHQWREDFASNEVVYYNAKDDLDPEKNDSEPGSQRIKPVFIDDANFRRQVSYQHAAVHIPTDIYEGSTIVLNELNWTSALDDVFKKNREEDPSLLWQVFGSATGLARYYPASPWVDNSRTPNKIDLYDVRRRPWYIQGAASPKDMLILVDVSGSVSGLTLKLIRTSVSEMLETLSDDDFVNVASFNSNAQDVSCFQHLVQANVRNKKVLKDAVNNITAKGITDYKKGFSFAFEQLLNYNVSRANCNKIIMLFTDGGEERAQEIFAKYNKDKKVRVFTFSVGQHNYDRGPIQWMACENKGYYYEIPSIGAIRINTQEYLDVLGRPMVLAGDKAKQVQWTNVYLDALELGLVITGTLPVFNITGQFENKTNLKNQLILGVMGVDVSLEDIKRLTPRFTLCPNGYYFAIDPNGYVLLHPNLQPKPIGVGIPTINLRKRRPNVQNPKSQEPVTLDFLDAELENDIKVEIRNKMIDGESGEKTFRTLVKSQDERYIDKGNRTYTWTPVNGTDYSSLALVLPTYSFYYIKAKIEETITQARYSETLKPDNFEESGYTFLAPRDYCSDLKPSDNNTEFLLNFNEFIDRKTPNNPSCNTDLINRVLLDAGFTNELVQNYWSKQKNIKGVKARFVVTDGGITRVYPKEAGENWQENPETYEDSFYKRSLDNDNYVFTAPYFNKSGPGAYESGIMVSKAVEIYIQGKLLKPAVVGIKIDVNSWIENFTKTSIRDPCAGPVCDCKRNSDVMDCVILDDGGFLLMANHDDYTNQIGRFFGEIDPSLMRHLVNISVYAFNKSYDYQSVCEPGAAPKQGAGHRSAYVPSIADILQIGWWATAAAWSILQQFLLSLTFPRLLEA
T1 sequence (P13806 961-1106, stated change not applied): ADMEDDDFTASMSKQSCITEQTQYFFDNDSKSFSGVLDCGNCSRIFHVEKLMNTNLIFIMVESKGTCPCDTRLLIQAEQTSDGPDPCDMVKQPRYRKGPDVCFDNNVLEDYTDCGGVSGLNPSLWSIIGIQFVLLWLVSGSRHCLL
T1 sequence (Q24270 other isoform, or with tags, fused parts or gaps with the stated changes): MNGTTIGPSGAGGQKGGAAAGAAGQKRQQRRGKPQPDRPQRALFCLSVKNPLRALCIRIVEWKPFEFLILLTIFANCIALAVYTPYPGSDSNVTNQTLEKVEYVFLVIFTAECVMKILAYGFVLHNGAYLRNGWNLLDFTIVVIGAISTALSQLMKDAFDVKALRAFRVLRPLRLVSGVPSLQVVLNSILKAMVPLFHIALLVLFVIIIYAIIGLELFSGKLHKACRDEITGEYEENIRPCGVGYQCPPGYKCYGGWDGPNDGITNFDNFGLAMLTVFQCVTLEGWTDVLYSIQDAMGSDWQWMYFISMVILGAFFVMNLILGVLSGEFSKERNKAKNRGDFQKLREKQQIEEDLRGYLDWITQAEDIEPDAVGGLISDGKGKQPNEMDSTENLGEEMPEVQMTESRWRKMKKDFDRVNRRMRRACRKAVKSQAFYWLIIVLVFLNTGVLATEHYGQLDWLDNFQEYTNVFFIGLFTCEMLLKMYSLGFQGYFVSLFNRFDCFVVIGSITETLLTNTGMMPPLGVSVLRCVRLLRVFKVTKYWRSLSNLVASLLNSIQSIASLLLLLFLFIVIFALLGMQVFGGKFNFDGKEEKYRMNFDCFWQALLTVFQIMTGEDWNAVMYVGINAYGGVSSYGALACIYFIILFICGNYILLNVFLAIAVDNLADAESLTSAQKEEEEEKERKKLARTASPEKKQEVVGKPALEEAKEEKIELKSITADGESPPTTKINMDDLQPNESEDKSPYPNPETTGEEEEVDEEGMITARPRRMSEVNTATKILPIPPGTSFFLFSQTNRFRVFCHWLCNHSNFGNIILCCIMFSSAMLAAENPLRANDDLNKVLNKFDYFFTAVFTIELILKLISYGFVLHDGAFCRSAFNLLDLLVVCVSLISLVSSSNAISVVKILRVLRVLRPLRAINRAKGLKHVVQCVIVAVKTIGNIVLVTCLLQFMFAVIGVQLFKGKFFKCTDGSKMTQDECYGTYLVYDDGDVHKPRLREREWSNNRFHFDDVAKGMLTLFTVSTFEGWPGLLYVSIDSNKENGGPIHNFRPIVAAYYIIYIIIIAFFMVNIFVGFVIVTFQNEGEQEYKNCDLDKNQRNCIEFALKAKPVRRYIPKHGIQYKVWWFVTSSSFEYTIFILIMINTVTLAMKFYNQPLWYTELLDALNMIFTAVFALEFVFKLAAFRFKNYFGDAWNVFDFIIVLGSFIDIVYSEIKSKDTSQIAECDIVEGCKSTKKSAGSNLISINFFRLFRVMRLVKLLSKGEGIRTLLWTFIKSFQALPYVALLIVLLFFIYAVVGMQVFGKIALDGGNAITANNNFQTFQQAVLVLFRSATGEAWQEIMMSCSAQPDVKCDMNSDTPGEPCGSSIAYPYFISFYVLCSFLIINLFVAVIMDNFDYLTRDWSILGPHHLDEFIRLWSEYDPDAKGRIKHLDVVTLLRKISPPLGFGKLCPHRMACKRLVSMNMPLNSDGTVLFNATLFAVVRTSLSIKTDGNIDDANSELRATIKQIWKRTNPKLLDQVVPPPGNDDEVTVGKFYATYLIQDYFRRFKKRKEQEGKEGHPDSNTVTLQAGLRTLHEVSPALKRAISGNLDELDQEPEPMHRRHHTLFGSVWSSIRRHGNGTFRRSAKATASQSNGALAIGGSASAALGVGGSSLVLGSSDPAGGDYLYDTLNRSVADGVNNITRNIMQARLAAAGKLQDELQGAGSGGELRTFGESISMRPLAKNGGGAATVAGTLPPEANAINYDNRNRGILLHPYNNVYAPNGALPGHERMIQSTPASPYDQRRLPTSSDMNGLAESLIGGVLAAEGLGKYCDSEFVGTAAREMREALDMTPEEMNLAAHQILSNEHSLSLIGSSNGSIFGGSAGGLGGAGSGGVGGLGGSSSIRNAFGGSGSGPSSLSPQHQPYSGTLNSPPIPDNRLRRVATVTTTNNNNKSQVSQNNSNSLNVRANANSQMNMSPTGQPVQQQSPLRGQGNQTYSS
From the text: (§1) Construct L23RDD2 in the pAGA2 vector (Wei et al. (1991) J. Biol. Chem. 266:21943-21947) encodes the Drosophila DmcalD calcium channel α1 subunit. The coding sequence begins with the fifth methionine in the published sequence (Zheng et al. (1995) J. Neurosci. 15:1132-1143). A part of the II-III cytoplasmic loop (amino acids […] in Zheng et al. (1995) J. Neurosci. 15:1132-1143) has been replaced with 85 amino acids from the rabbit cardiac α1C subunit (amino acids 790-874, Wei et al. 1991, supra ). The α2−δ subunit used in these studies is MXTα2−δ. This is an EcoRI fragment from the rabbit skeletal muscle α2−δ subunit described by Mikami et al. ((1989) Nature340:230-233) subcloned into the Xenopus oocyte expression vector pBScMXT (from L. Salkoff, Washington, St Louis). The Drosophila beta subunit clone used was β-DN2CI in oocyte expression vector pAGA2. This beta subunit isoform contains both conserved domains and the N2 form of form of the amino terminus. The rabbit cardiac α1C subunit clone (Wei et al. 1991, supra) (in the pAGA2 vector) was CardΔN60 in which the first 60 amino acids on the N terminus were deleted to enhance expression.
(§2) Injection mixtures were prepared in 1 mM Tris pH7.0 and 50 nl was injected into each oocyte. For studies of the Drosophila L23RDD2 channel αl subunit the concentrations of the “undiluted” cocktail in ng/ul were: 300 αl, 150 α2−δ, 83 β. For studies of the rabbit cardiac αl subunit the concentrations of the “undiluted” cocktail in ng/μl were: 12 α1, 6.6 α2−δ, 3.6 β. Oocytes were incubated at 18° C. in ND96 plus supplements (Goldin (1992) Methods Enz. 207:266-279) (changed daily) until recording.
(§3) Two different recording solutions were used. Solution 1 consisted of (in mM): 40 Ba(OH)2, 50 NaOH, 2 KOH, 1 niflumic acid, 0.1 EGTA, 5 HEPES, adjusted to pH 7.4 with methanesulfonic acid (Pragnell et al. (1994) Nature 368:67-70). Solution 2 was used for some experiments and consisted of (in mM): 40 Ba(OH)2, 52 TEA, 5 HEPES, adjusted to pH 7.4 with methanesulfonic acid (Yang et al. (1993) Nature 366:158-161). […]
(§4) FIG. 20 summarizes a dose response curve for the dihydropyridine antagonist nifedipine using oocytes expressing CRNA (in ng/ul): 150 L23RDD2 α1, 75 α2−δ, and 41.5 β. Each point represents 3 to 9 oocytes recorded in Solution 1. […] This compares well with the nifedipine sensitivity determined for this calcium channel in Drosophila larval muscle where 10 μM nifedipine blocks 80% of the current associated with the Dmca1D current (Gielow et al. (1995) J. Neurosci. 15:6085-6093). […] Thus, the Xenopus oocyte expression system is ready for use in testing compounds active against this calcium channel in insects. […]

[2] = molecular target: T2, Drosophila Dmca1D calcium channel (L23RDD2 α1 + α2−δ + β) (Drosophila melanogaster, UniProt Q24270, A1391P/C1440T/D1375E/D1388K/D1403I/D1421E/D1422S/D1433P/DEL1408-1416/DEL1426-1431/E1379S/E1381Q/E1419P/E1434Y/E1435P/E1441G/G1404N/H1387E/H1396E/I1402K/INS1389RKKLARTA/INS1394[…]/L1420N/M1439T/P1386E/P1400T/Q1392E/Q1417L/R1437P/S1378T/S1395G/T1399P/V1380A/V1436N); experiment: as above; conditions: 2 μM BayK8644, Solution 2, BAPTA preinjection
T2 construct: rabbit cardiac α1C subunit amino acids 790-874 (85 aa insert replacing the fly II-III loop segment); expressed in transfected cells; host or cells: Xenopus oocytes injected with cRNA
T2 sequence (P13806 27-960, stated change not applied): as the sequence (P13806 27-960, stated change not applied) above
T2 sequence (P13806 961-1106, stated change not applied): as the sequence (P13806 961-1106, stated change not applied) above
T2 sequence (Q24270 other isoform, or with tags, fused parts or gaps with the stated changes): as the sequence (Q24270 other isoform, or with tags, fused parts or gaps with the stated changes) above
From the text: as §1, §2, §3, §4

[3] = molecular target: T3, rabbit cardiac calcium channel (α1CΔN60 + α2−δ + β) (Oryctolagus cuniculus, UniProt P15381); experiment: Calcium channel currents in Xenopus oocytes expressing the rabbit cardiac α1C subunit with α2-δ and β subunits; conditions: 2 μM BayK8644, Solution 2, BAPTA preinjection
T3 construct: expressed in transfected cells; host or cells: Xenopus oocytes injected with cRNA
From the text: We completed an analysis of 14 different chimeras to identify the region which was preventing expression of the Drosophila Dmca1D calcium channel currents in Xenopus oocytes. As a result of that analysis we defined a short region of 67 amino acids in the cytoplasmic loop between repeats II and III that was causing the difficulty (see FIG. 11). When an 85 amino acid segment from the rabbit cardiac α1 C subunit was substituted in place of this 67 amino acid Drosophila sequence, we were able to reproducibly generate small calcium channel currents using barium as the charge carrier. In this Example, and in the experiments described in the Examples below, we used a combination of subunit cRNAs. […] When control experiments were run using rabbit cardiac calcium channels, the same auxiliary subunits were used and the rabbit αlCΔN60 subunit was used in place of the Drosophila L23RDD2 α1 chimera.
Construct L23RDD2 in the pAGA2 vector (Wei et al. (1991) J. Biol. Chem. 266:21943-21947) encodes the Drosophila DmcalD calcium channel α1 subunit. The coding sequence begins with the fifth methionine in the published sequence (Zheng et al. (1995) J. Neurosci. 15:1132-1143). A part of the II-III cytoplasmic loop (amino acids 1222-1228 in Zheng et al. (1995) J. Neurosci. 15:1132-1143) has been replaced with 85 amino acids from the rabbit cardiac α1C subunit (amino acids 790-874, Wei et al. 1991, supra ). […]

Structure (SMILES)	EC50 [1] [µM]	Effect of BayK on the channel current (in words) [2]	Effect on tail current kinetics in the presence of BayK (in words) [2]	Peak current in the presence of BayK ([2]; same oocyte without BayK 1548.5 nA) [nA]	Effect of BayK on the channel current (in words) [3]	Peak current in the presence of BayK ([3]; same oocyte without BayK 488.2 nA) [nA]
COC(=O)C1=C(C)NC(C)=C(C(=O)OC)C1c1ccccc1[N+](=O)[O-] [nifedipine]	~3	–	–	–	–	–
COC(=O)C1=C(C)NC(C)=C([N+](=O)[O-])C1c1ccccc1C(F)(F)F (stereo not drawn) [BayK8644]	–	no stimulation	no obvious change in kinetics	1208.1	increase in the peak current and slowing of the tail currents	1673.7
